Measurements from patent US20170216350A1, “COMPOSITIONS OF ALUMINUM FLUORIDE AND METHODS OF USE THEREOF FOR THE TREATMENT AND PREVENTION OF ACTINIC KERATOSIS AND SUN-INDUCED DAMAGES” (priority 2012, published 2017).

Tested on: actinic keratosis lesions
Conditions: twice daily
Text: A cream was applied on dry skin, on the whole forehead, twice daily. Aluminum fluoride at 0.30% w/w was used in a base cream containing Caprylic/Capric acids, sulfur, resorcinol, medium chain triglycerides, PEG 400, Pluronic F127, Ylang ylang oil and water .
Patient 2 is a person having actinic keratosis on their nose, in particular, two ulcers of about 1 mm each. The aluminum fluoride composition was at 0.30% w/w, and the base cream was modified to a cream containing deionized water, arachidyl alcohol, behenyl alcohol, arachidyl glucoside, montanoV 202, cetearyl alcohol, capric/caprilic triglyceride, isopropyl palmitate, steareth-2, dimethicon, steareth-20, allantoin, propylene glycol, Methylisothiazolinone (sheromix MT) and sodium benzoate.
A cream was applied on dry skin, on the cheek, twice daily. Aluminum fluoride at 0.30% w/w was used in a base cream containing Caprylic/Capric triglycerides, a polyethylene glycol component, hydrophilic non-ionic surfactant and purified water.
A cream was applied on dry skin, on the whole forehead, twice daily. Aluminum fluoride at 0.30% w/w was used in a base cream containing Caprylic/Capric triglycerides, a polyethylene glycol component, hydrophilic non-ionic surfactant and purified water.

aluminum fluoride was tested, and the “actinic keratosis lesions (FIG. 1A/1B)” value (Patient 1, 8th decade, 0.30% w/w in base cream (Caprylic/Capric acids, sulfur, resorcinol, MCT, PEG 400, Pluronic F127), whole forehead, 3 weeks) was “gradual disappearance of lesions”, the “vascularization (FIG. 2(ii) compared to FIG. 2(i))” value (Patient 2, 0.30% w/w in modified base cream) was “major decrease in vascularization” and the “actinic keratosis ulcers on nose (two ulcers of about 1 mm each)” value (Patient 2, 0.30% w/w in modified base cream, after approximately three weeks) was “closure of the first ulcer and disappearance of the second ulcer”. For the same substance, the “actinic keratosis lesions (FIG. 3A/3B)” value (Patient 6, 6th decade, 0.30% w/w in base cream (Caprylic/Capric triglycerides, polyethylene glycol component, non-ionic surfactant, water), cheek, 12 weeks) was “disappearance of lesions” and the “actinic keratosis lesions (FIG. 4A/4B)” value (Patient 13, 6th decade, 0.30% w/w in base cream (Caprylic/Capric triglycerides, polyethylene glycol component, non-ionic surfactant, water), whole forehead, 10 weeks) was “disappearance of lesions”.
